Literature values as cited in patent publication US20220040156A1, “COMPOSITIONS, DEVICES AND METHODS FOR TREATING OBSESSIVE-COMPULSIVE DISORDER” (CENTRE FOR DIGESTIVE DISEASES, priority 2017, published 2022).

Test system: children with autism / autistic symptoms
Conditions: reports of Sandler et al. 2000, Rodakis 2015 and unreferenced observations

Row | SMILES | effect on behavioural changes / autistic symptoms
1 | CC1(C)S[C@@H]2[C@H](NC(=O)[C@H](N)c3ccc(O)cc3)C(=O)N2[C@H]1C(=O)O [amoxycillin] | reversed almost completely
2 | CN[C@H](CC(C)C)C(=O)N[C@H]1C(=O)N[C@@H](CC(N)=O)C(=O)N[C@H]2C(=O)N[C@H]3C(=O)N[C@H](C(=O)N[C@H](C(=O)O)c4cc(O)cc(O)c4-c4cc3ccc4O)[C@H](O)c3ccc(c(Cl)c3)Oc3cc2cc(c3O[C@@H]2O[C@H](CO)[C@@H](O)[C@H](O)[C@H]2O[C@H]2C[C@](C)(N)[C@H](O)[C@H](C)O2)Oc2ccc(cc2Cl)[C@H]1O [vancomycin] | reversal of behavioural changes and progress to normality within a few weeks
